Laboratory results as given in patent US5358971A, “Substituted 2-aminotetralins” (Whitby Research, Inc., priority 1993, dated 1994).
Structures can show the parent of a compound that is named as a salt.

Experiments:
dopamine D2 receptors = dopamine D2 receptors (Bos taurus, UniProt P20288); assay: Radioligand binding to dopamine D2 receptors ([3H]-Spiperone, bovine caudate nuclei); settings: for D2 (pK1) / Ki: bovine caudate nuclei, [3H]-Spiperone, 75 minutes at room temperature, 30 nM ketanserin, two-site fitted model; for Ki: read-out: D2 (pK1) (converted)
dopamine D2 receptors, sequence (P20288 whole entry): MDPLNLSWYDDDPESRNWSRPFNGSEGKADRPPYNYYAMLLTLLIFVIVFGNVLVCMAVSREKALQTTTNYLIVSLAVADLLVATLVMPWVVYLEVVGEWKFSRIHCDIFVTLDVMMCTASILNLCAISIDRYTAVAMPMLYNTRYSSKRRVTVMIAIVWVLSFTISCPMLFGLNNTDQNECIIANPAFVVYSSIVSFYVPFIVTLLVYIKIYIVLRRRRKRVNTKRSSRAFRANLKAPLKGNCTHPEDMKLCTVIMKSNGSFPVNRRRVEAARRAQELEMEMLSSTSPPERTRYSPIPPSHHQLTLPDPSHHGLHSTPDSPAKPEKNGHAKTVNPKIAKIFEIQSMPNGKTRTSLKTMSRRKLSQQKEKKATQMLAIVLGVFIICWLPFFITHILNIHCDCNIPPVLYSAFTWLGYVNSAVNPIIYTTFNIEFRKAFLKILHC
Method: (§1) Radioligand Binding Experiments (Dopamine Receptor Affinity Information; pK1 values):
(§2) Bovine brains were obtained fresh from a local slaughterhouse. The caudate nuclei were dissected out and homogenized in Buffer A (50 mM Tris; 1 mM Na2 -EDTA; 5 mM KCl; 1 mM MgCl2; 2 mM CaCl2; pH 7.4) using a Brinkmann Polytron. The homogenate was centrifuged at 40,000×g for 20 minutes and washed once. The pellet was resuspended in Buffer A, incubated at 37° C. for 15 minutes, then centrifuged. The pellet was washed once more, resuspended to a protein concentration of 5-10 mg/ml in Buffer A and frozen at -70° C. until used.
(§3) To test binding of the compounds to dopamine receptors, the following tritiated drugs were used as radioligands for each of the receptors tested: [^3 H]-Spiperone 21-24 Ci/mmol for D2 receptors and [^3 H]-SCH23390 75-85 Ci/mmol for D1 receptors. The radioligands were incubated with various concentrations of competing drug and bovine membranes for the following times: 75 minutes at room temperature for D2 receptors, and 15 minutes at 37° C. for D1 receptors. Specific binding was defined using 1 μM butaclamol (D2) and 1 μM SCH 23390 (D1). In addition, the D2 assays contained 30 nM ketanserin in order to block the binding of [^3 H]-spiperone to 5-HT2 receptors.
(§4) The assays were terminated by filtration using a 24-port Brandell cell harvester over filters that had been previously soaked in 0.1% polyethyleneimine, and the filters were washed three times by filtration of cold buffer. The filters were then placed in 5 ml scintillation vials to which 4 ml of Beckman Ready-Protein was then added, and each vial was counted for 2 minutes in a Beckman 3801 scintillation counter calibrated for conversion of cpm to dpm. Binding data were analyzed using the Ligand program of Munson and Rodbard (1980). The results are presented as pK1 values in a two-site fitted model.
as §2, with “To test binding to dopamine receptors, the bovine caudate nuclei assay was employed. Bovine” for “Bovine”, “mMMgCl2;” for “mM MgCl2;”, “Brinkman” for “Brinkmann”
(§5) The following tritiated drugs were used as radioligands for each of the receptors tested: [^3 H]-Spiperone 21-24 Ci/mmol for D2 receptors and [^3 H]-SCH23390 75-85 Ci/mmol for D1 receptors. The radioligands were incubated with various concentrations of competing drug and the appropriate membrane source for periods of time as follows: 75 minutes at room temperature for D2 receptors or 15 minutes at 37° C. for D1 receptors. Specific binding was defined using 1 μM butaclamol (D2) or 1 μM SCH23390 (D1). In addition, the D2 assays contained 30nM ketaserin in order to block the binding of ^3 H-spiperone to 5HT2 receptors.
as §4, with “as Ki” for “as pK1”, “values if the data were best fitted to a one-site model, or as Kh and K1 values if” for “values in”, “two-site model produced the better fit.” for “two-site fitted model.”

dopamine D2 = settings: reference compound, in words; cited from earlier work
dopamine D1 receptors = dopamine D1 receptors (Bos taurus, UniProt Q95136); assay: Radioligand binding to dopamine D1 receptors ([3H]-SCH23390, bovine caudate nuclei); settings: 15 minutes at 37° C., two-site fitted model; for Ki: read-out: D1 (pK1) (converted)
dopamine D1 receptors, sequence (Q95136 whole entry): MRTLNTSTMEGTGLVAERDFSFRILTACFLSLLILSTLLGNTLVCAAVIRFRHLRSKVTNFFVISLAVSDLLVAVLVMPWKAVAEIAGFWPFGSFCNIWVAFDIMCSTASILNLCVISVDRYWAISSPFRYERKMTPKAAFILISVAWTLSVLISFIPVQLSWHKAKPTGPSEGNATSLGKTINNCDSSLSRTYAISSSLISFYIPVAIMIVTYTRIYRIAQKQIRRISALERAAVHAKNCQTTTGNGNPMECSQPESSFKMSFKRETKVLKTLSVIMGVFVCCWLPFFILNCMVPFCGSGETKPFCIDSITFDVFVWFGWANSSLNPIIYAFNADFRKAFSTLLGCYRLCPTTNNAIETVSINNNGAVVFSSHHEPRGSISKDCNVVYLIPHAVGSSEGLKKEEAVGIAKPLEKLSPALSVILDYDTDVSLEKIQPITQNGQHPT
Method: as §1, §2, §3, §4
as §2, with “To test binding to dopamine receptors, the bovine caudate nuclei assay was employed. Bovine” for “Bovine”, “mMMgCl2;” for “mM MgCl2;”, “Brinkman” for “Brinkmann”
as §5
as §4, with “as Ki” for “as pK1”, “values if the data were best fitted to a one-site model, or as Kh and K1 values if” for “values in”, “two-site model produced the better fit.” for “two-site fitted model.”

dopamine receptor = settings: prior art, in words; cited from earlier work

Compound | Ki (dopamine D2 receptors) [nM] | Ki (dopamine D1 receptors) [nM] | further results
CCCN(CCc1cccs1)C1CCc2c(O)cccc2C1 (racemic) [Example N-0437, reference compound] | – | – | D2 (pK1) (dopamine D2 receptors): 6.96; dopamine D2 agonist (dopamine D2): potent dopamine D2 agonist
CCCN(CCOc1ccccc1)C1CCc2c(O)cccc2C1 (single isomer, unassigned; (-)) [Example 30, (-)-5,6,7,8-tetrahydro-6-[(2-phenoxyethyl)propylamino]-1-naphthalenol] | 170 | 8710 | –
CCCN(CCOc1ccccc1)C1CCc2c(O)cccc2C1 (stereo not shown) [Example 2, 2-[N-n-propyl,N-2-(phenyloxy)ethylamino]-5-hydroxytetralin] | 126 | 12000 | affinity for binding to dopamine D2 receptors (dopamine D2 receptors; in words): high affinity; selectivity for binding to dopamine D2 receptors (dopamine D2 receptors; in words): high affinity and selectivity
CCCN(CCC1OC(=O)c2ccccc21)C1CCc2c(O)cccc2C1 (stereo not shown) [Example 9, 3-[2-[propyl(1,2,3,4-tetrahydro-5-hydroxy-2-naphthalenyl)amino]ethyl]-l(3H)-isobenzofuranone] | 66.1 | 2140 | –
CCCN(CC(c1ccccc1)c1ccccc1)C1CCc2c(O)cccc2C1 (stereo not shown) [Example 12, 2-[N-n-propyl,N-2,2-diphenylethylamino]-5-hydroxytetralin] | 46.8 | 9120 | –
CCCN(CCC(c1ccccc1)c1ccccc1)C1CCc2c(O)cccc2C1 (stereo not shown) [Example 14, 2-[N-n-propyl,N-3,3-diphenyipropylamino]-5-hydroxytetralin] | 339 | 1380 | –
CCCN(CCOc1ccc2ccccc2c1)C1CCc2c(O)cccc2C1 (stereo not shown) [Example 32, 5,6,7,8-tetrahydro-6-[(2-(2-naphthalenyloxy)ethyl]propylamino]-1-naphthalenol] | 2630 | 4170 | –
CCCN(CCSc1ccccc1)C1CCc2c(O)cccc2C1 (stereo not shown) [Example 34, 5,6,7,8-tetrahydro-6-[(2-thiophenoxyethyl)propylamino]-1-naphthalenol] | 79.4 | 1290 | –
CCCN(CC[C@H]1OC(=O)c2ccccc21)[C@H]1CCc2c(O)cccc2C1 [Example 36, (S,R)-3-[2-[propyl(1,2,3,4-tetrahydro-5-hydroxy-2-naphthalenyl)amino]ethyl]-l(3H)-isobenzofuranone] | – | – | D2 (pK1) (dopamine D2 receptors): 6.85; D1 (pK1) (dopamine D1 receptors): 6.56
CCCN(CC[C@@H]1OC(=O)c2ccccc21)[C@H]1CCc2c(O)cccc2C1 [Example 37, (S,S)-3-[2-[propyl(1,2,3,4-tetrahydro-5-hydroxy-2-naphthalenyl)amino]ethyl]-1(3H)-isobenzofuranone] | 123 | 1230 | –
CCCN(CCOc1ccccc1)C1CCc2ccc(O)cc2C1 (stereo not shown) [Example 39, 5,6,7,8-tetrahydro-6-[(2-phenoxylethyl)-propylamino]-3-naphthalenol] | 813 | 12300 | –
CCCN(CCOc1cccc(F)c1)C1CCc2c(O)cccc2C1 (stereo not shown) [Example 45, 5,6,7,8-tetrahydro-6-[[2(3-fluorophenoxy)ethyl]propylamino]-1-naphthalenol] | 316 | 10500 | –
CCCN(CCC1OCc2ccccc21)C1CCc2c(O)cccc2C1 (stereo not shown) [Example 46, 6-[[2-(1,3-dihydro-1-isobenzofuranyl)-ethyl]propylamino]-5,6,7,8-tetrahydro-1-naphthalenol] | – | – | D2 (pK1) (dopamine D2 receptors): 6.77; D1 (pK1) (dopamine D1 receptors): 5.14
CCCN(CCOc1cccc2ccccc12)C1CCc2c(O)cccc2C1 (stereo not shown) [Example 48, 5,6,7,8-tetrahydro-6-[[2-(1-naphthalenyloxy)ethyl]propylamino]-1-naphthalenol hydrochloride] | 1150 | 13500 | –
CN1CCc2cccc3c2[C@H]1Cc1ccc(O)c(O)c1-3 [apomorphine] | – | – | dopaminergic activity (dopamine receptor): high activity
